Experimental data published in patent US9657014B2, “Substituted 1,6-naphthyridines” (Hoffmann-La Roche Inc., priority 2012, dated 2017).

These compounds were tested on human embryonic stem cell derived neural stem cells (NSCs) (assay: Neural stem cell proliferation assay (neurogenesis assay)). Conditions: Homo sapiens, Neural stem cell, 96 h; Table 1, novel compounds; concentration at which 150% activity of control (100%) is reached; ATP levels (CellTiterGlo) after 4 days incubation.
Assay type: cell-based
How it was run: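 NSCs derived from human ES cells by dual SMAD inhibition, seeded on polyornithin/laminin, dosed 4 h later (11 points, 8 μM to 8 nM). After 4 days at 37° C, ATP luminescence read; response = compound/medium control ×100, EC150 = concentration giving 150% of control.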
`CS(=O)(=O)c1ccc(CNC(=O)c2ccc3cncc(-c4ccccc4F)c3n2)cc1` [Example 112, 8-(2-Fluorophenyl)-N-(4-(methylsulfonyl)benzyl)-1,6-naphthyridine-2-carboxamide] gave an EC (150% of control) of 0.25 µM.
`CS(=O)(=O)c1ccc(CNC(=O)c2ccc3cncc(-c4cccc(F)c4)c3n2)cc1` [Example 113, 8-(3-Fluorophenyl)-N-(4-(methylsulfonyl)benzyl)-1,6-naphthyridine-2-carboxamide] showed an EC (150% of control) of 0.17 µM.
`CS(=O)(=O)c1ccc(CNC(=O)c2ccc3cncc(-c4ccc(F)cc4F)c3n2)cc1` [Example 114, 8-(2,4-Difluorophenyl)-N-(4-(methylsulfonyl)benzyl)-1,6-naphthyridine-2-carboxamide] gave an EC (150% of control) of 0.51 µM.
Compound `CS(=O)(=O)c1ccc(CNC(=O)c2ccc3cncc(-c4ccc(F)c(F)c4)c3n2)cc1` [Example 115, 8-(3,4-Difluorophenyl)-N-(4-(methylsulfonyl)benzyl)-1,6-naphthyridine-2-carboxamide] has an EC (150% of control) of 1.95 µM.
With `CS(=O)(=O)c1ccc(CNC(=O)c2ccc3cncc(-c4cc(F)ccc4F)c3n2)cc1` [Example 116, 8-(2,5-Difluorophenyl)-N-(4-(methylsulfonyl)benzyl)-1,6-naphthyridine-2-carboxamide] the EC (150% of control) was 1.65 µM.
Compound `CC(C)(C)CNC(=O)c1ccc2cncc(-c3ccc(F)cc3)c2n1` [Example 117, 8-(4-Fluorophenyl)-N-neopentyl-1,6-naphthyridine-2-carboxamide] has an EC (150% of control) of 0.07 µM.
Compound `CC(C)(C)CNC(=O)c1ccc2cncc(-c3ccccc3F)c2n1` [Example 118, 8-(2-Fluorophenyl)-N-neopentyl-1,6-naphthyridine-2-carboxamide] has an EC (150% of control) of 0.04 µM.
`CC(C)(C)CNC(=O)c1ccc2cncc(-c3cccc(F)c3)c2n1` [Example 119, 8-(3-Fluorophenyl)-N-neopentyl-1,6-naphthyridine-2-carboxamide] gave an EC (150% of control) of 0.27 µM.
For `CC(C)(C)CNC(=O)c1ccc2cncc(-c3ccc(F)cc3F)c2n1` [Example 120, 8-(2,4-Difluorophenyl)-N-neopentyl-1,6-naphthyridine-2-carboxamide], the EC (150% of control) was 0.08 µM.
In the case of `CC(C)(C)CNC(=O)c1ccc2cncc(-c3ccc(F)c(F)c3)c2n1` [Example 121, 8-(3,4-Difluorophenyl)-N-neopentyl-1,6-naphthyridine-2-carboxamide], the EC (150% of control) is reported as 0.26 µM.
For `CC(C)(C)CNC(=O)c1ccc2cncc(-c3cc(F)ccc3F)c2n1` [Example 122, 8-(2,5-Difluorophenyl)-N-neopentyl-1,6-naphthyridine-2-carboxamide], the EC (150% of control) was 0.12 µM.
In the case of `O=C(NCC(F)(F)F)c1ccc2cncc(-c3cccc(F)c3)c2n1` [Example 123, 8-(3-Fluorophenyl)-N-(2,2,2-trifluoroethyl)-1,6-naphthyridine-2-carboxamide], the EC (150% of control) is reported as 0.38 µM.
`O=C(NCC(F)(F)F)c1ccc2cncc(-c3ccc(F)cc3)c2n1` [Example 124, 8-(4-Fluorophenyl)-N-(2,2,2-trifluoroethyl)-1,6-naphthyridine-2-carboxamide] was tested, and the EC (150% of control) was 0.07 µM.
`O=C(NCC(F)(F)F)c1ccc2cncc(-c3ccccc3F)c2n1` [Example 125, 8-(2-Fluorophenyl)-N-(2,2,2-trifluoroethyl)-1,6-naphthyridine-2-carboxamide] gave an EC (150% of control) of 0.04 µM.
With `O=C(NCC(F)(F)F)c1ccc2cncc(-c3ccc(F)cc3F)c2n1` [Example 126, 8-(2,4-Difluorophenyl)-N-(2,2,2-trifluoroethyl)-1,6-naphthyridine-2-carboxamide] the EC (150% of control) was 0.06 µM.
In the case of `O=C(NCC(F)(F)F)c1ccc2cncc(-c3ccc(F)c(F)c3)c2n1` [Example 127, 8-(3,4-Difluorophenyl)-N-(2,2,2-trifluoroethyl)-1,6-naphthyridine-2-carboxamide], the EC (150% of control) is reported as 0.23 µM.
`O=C(NCC(F)(F)F)c1ccc2cncc(-c3cc(F)ccc3F)c2n1` [Example 128, 8-(2,5-Difluorophenyl)-N-(2,2,2-trifluoroethyl)-1,6-naphthyridine-2-carboxamide] was tested, and the EC (150% of control) was 0.13 µM.
`CS(=O)(=O)CCNC(=O)c1ccc2cncc(-c3ccc(F)cc3F)c2n1` [Example 129, 8-(2,4-Difluorophenyl)-N-(2-(methylsulfonyl)ethyl)-1,6-naphthyridine-2-carboxamide] gave an EC (150% of control) of 0.06 µM.
`O=C(c1ccc2cncc(-c3ccc(Cl)cc3F)c2n1)N1CCC(O)C1` (stereo not shown) [Example 130, (8-(4-Chloro-2-fluorophenyl)-1,6-naphthyridin-2-yl)(3-hydroxypyrrolidin-1-yl)methanone] showed an EC (150% of control) of 0.13 µM.
Compound `O=C(c1ccc2cncc(-c3ccc(Cl)c(F)c3)c2n1)N1CCC(O)C1` (stereo not shown) [Example 131, (8-(4-Chloro-3-fluorophenyl)-1,6-naphthyridin-2-yl)(3-hydroxypyrrolidin-1-yl)methanone] has an EC (150% of control) of 0.07 µM.
For `CS(=O)(=O)c1ccccc1CNC(=O)c1ccc2cncc(-c3ccc(Cl)cc3)c2n1` [Example 132, 8-(4-Chlorophenyl)-N-(2-(methylsulfonyl)benzyl)-1,6-naphthyridine-2-carboxamide], the EC (150% of control) was 0.03 µM.
With `CS(=O)(=O)CCNC(=O)c1ccc2cncc(-c3ccccc3F)c2n1` [Example 133, 8-(2-Fluorophenyl)-N-(2-(methylsulfonyl)ethyl)-1,6-naphthyridine-2-carboxamide] the EC (150% of control) was 0.23 µM.
For `CS(=O)(=O)CCNC(=O)c1ccc2cncc(-c3cccc(F)c3)c2n1` [Example 134, 8-(3-Fluorophenyl)-N-(2-(methylsulfonyl)ethyl)-1,6-naphthyridine-2-carboxamide], the EC (150% of control) was 0.22 µM.
With `CS(=O)(=O)CCNC(=O)c1ccc2cncc(-c3ccc(F)cc3)c2n1` [Example 135, 8-(4-Fluorophenyl)-N-(2-(methylsulfonyl)ethyl)-1,6-naphthyridine-2-carboxamide] the EC (150% of control) was 0.08 µM.
With `CC(C)Cc1cncc2ccc(C(N)=O)nc12` [Example 136, 8-Isobutyl-1,6-naphthyridine-2-carboxamide] the EC (150% of control) was 0.04 µM.
Work on `CS(=O)(=O)CCNC(=O)c1ccc2cncc(-c3ccc(F)c(F)c3)c2n1` [Example 137, 8-(3,4-Difluorophenyl)-N-(2-(methylsulfonyl)ethyl)-1,6-naphthyridine-2-carboxamide] yielded an EC (150% of control) of 0.35 µM.
`CS(=O)(=O)CCNC(=O)c1ccc2cncc(-c3cc(F)ccc3F)c2n1` [Example 138, 8-(2,5-Difluorophenyl)-N-(2-(methylsulfonyl)ethyl)-1,6-naphthyridine-2-carboxamide] gave an EC (150% of control) of 0.26 µM.
`CS(=O)(=O)CCNC(=O)c1ccc2cncc(-c3ccc(Cl)cc3F)c2n1` [Example 139, 8-(4-Chloro-2-fluorophenyl)-N-(2-(methylsulfonyl)ethyl)-1,6-naphthyridine-2-carboxamide] was tested, and the EC (150% of control) was 0.06 µM.
`CN(C)c1cc(-c2cncc3ccc(C(N)=O)nc23)ccn1` [Example 140, 8-(2-(Dimethylamino)pyridin-4-yl)-1,6-naphthyridine-2-carboxamide] gave an EC (150% of control) of 0.147 µM.
In the case of `NC(=O)c1ccc2cncc(N3CCOCC3)c2n1` [Example 142, 8-Morpholino-1,6-naphthyridine-2-carboxamide], the EC (150% of control) is reported as 0.94 µM.
`COc1cccc(-c2cncc3ccc(C(N)=O)nc23)c1` [Example 143, 8-(3-Methoxyphenyl)-1,6-naphthyridine-2-carboxamide] showed an EC (150% of control) of 0.24 µM.
Compound `O=C(NCCO)c1ccc2cncc(-c3cccc(O)c3)c2n1` [Example 144, N-(2-Hydroxyethyl)-8-(3-hydroxyphenyl)-1,6-naphthyridine-2-carboxamide] has an EC (150% of control) of 0.16 µM.
Work on `CCCCCCNC(=O)c1ccc2cncc(-c3ccc(Cl)cc3)c2n1` [Example 145, 8-(4-Chlorophenyl)-N-hexyl-1,6-naphthyridine-2-carboxamide] yielded an EC (150% of control) of 0.21 µM.
Work on `NC(=O)c1ccc2cncc(C3=CCOCC3)c2n1` [Example 146, 8-(3,6-Dihydro-2H-pyran-4-yl)-1,6-naphthyridine-2-carboxamide] yielded an EC (150% of control) of 0.21 µM.
`CCCCCCNC(=O)c1ccc(-c2cncc3ccc(C(N)=O)nc23)cc1` [Example 147, 8-(4-(Hexylcarbamoyl)phenyl)-1,6-naphthyridine-2-carboxamide] showed an EC (150% of control) of 0.09 µM.
With `CCCCCCNC(=O)Cc1cccc(-c2cncc3ccc(C(N)=O)nc23)c1` [Example 148, 8-(3-(2-(Hexylamino)-2-oxoethyl)phenyl)-1,6-naphthyridine-2-carboxamide] the EC (150% of control) was 0.18 µM.
In the case of `CCCCCCC(=O)NCc1ccc(-c2cncc3ccc(C(N)=O)nc23)cc1` [Example 149, 8-(4-(Heptanamidomethyl)phenyl)-1,6-naphthyridine-2-carboxamide], the EC (150% of control) is reported as 0.07 µM.
`CCCCCCNC(=O)Cc1ccc(-c2cncc3ccc(C(N)=O)nc23)cc1` [Example 150, 8-(4-(2-(Hexylamino)-2-oxoethyl)phenyl)-1,6-naphthyridine-2-carboxamide] was tested, and the EC (150% of control) was 0.04 µM.
With `CCCCCCC(=O)NCc1cccc(-c2cncc3ccc(C(N)=O)nc23)c1` [Example 151, 8-(3-(Heptanamidomethyl)phenyl)-1,6-naphthyridine-2-carboxamide] the EC (150% of control) was 0.03 µM.
`Cc1cc2cncc(-c3ccc(Cl)cc3)c2nc1C(N)=O` [Example 152, 8-(4-Chlorophenyl)-3-methyl-1,6-naphthyridine-2-carboxamide] gave an EC (150% of control) of 0.34 µM.
With `Cc1cc2cncc(-c3ccc(F)cc3)c2nc1C(N)=O` [Example 153, 8-(4-Fluorophenyl)-3-methyl-1,6-naphthyridine-2-carboxamide] the EC (150% of control) was 0.79 µM.
`Cc1cc2cncc(-c3ccc(OC(F)(F)F)cc3)c2nc1C(N)=O` [Example 154, 3-Methyl-8-(4-(trifluoromethoxy)phenyl)-1,6-naphthyridine-2-carboxamide] was tested, and the EC (150% of control) was 2.19 µM.

Same assay, conditions: Table 1, novel compounds; concentration at which 150% activity of control (100%) is reached; ATP levels (CellTiterGlo) after 4 days incubation
For `CC1(CNC(=O)c2ccc3cncc(-c4ccc(Cl)cc4)c3n2)CCC(=O)N1` (stereo not shown) [Example 141, 8-(4-Chlorophenyl)-N-((2-methyl-5-oxopyrrolidin-2-yl)methyl)-1,6-naphthyridine-2-carboxamide], the “EC150” value was 0.01 µM.
